Laboratory results: patent US10213415B2, “Compounds as opioid receptor modulators” (JANSSEN PHARMACEUTICA NV, priority 2004, dated 2019)

What follows are molecules tested against T1, human mu opioid receptor (Homo sapiens, UniProt P35372) (assay: Human Mu Opioid Receptor Binding Assay (CHO membranes, 3H-Damgo)). Details: read-out: hKi μ.
T1 construct: purchased Perkin Elmer RBHOMM400UA; host or cells: Chinese Hamster Ovary cells (recombinant expression)
Protocol: Membranes from Chinese Hamster Ovary cells expressing the human […] opioid receptor (Perkin Elmer #RBHOMM400UA) are homogenized in assay buffer (50 mM Tris, pH 7.5 with 5 mM MgCl2) using a glass tissue grinder, Teflon pestle and a Steadfast Stirrer (Fisher Scientific). The concentration of membranes is adjusted to 300 μg/mL in assay buffer and 100 μL is dispensed into each well of the assay plate, a 96 well round bottom polypropylene plate. Compounds to be tested are solubilized in DMSO (Pierce), 10 mM, then diluted in assay buffer to 6× the desired final concentration. The ligand, ^3H-Damgo (Perkin Elmer #NET-902) is also diluted in assay buffer to 3.6 nM. In a second 96 well round bottom polypropylene plate, known as the premix plate, 60 μL of the 6× compound is combined with 60 μL of 3.6 nM ^3H-Damgo. From this premix plate 50 μL is transferred to the assay plate containing the membranes, in duplicate. The assay plate is incubated for 2 h at room temperature. A GF/C 96 well filter plate (Perkin Elmer #6005174) is pretreated with 0.3% polyethylenimine for 30 min. The contents of the assay plate are filtered through the filter plate using a Packard Filtermate Harvester, and washed 3 times with 0.9% saline that is 4° C. The filter plate is dried, the underside sealed, and 30 μL Microscint20 (Packard #6013621) added to each well. A Topcount-NXT Microplate Scintillation Counter (Packard) is used to measure emitted energies in the range of 2.9 to 35 KeV. […] Nonspecific binding is determined in the presence of 1 μM unlabelled Damgo (Tocris #1171).

T1 sequence (P35372 whole entry): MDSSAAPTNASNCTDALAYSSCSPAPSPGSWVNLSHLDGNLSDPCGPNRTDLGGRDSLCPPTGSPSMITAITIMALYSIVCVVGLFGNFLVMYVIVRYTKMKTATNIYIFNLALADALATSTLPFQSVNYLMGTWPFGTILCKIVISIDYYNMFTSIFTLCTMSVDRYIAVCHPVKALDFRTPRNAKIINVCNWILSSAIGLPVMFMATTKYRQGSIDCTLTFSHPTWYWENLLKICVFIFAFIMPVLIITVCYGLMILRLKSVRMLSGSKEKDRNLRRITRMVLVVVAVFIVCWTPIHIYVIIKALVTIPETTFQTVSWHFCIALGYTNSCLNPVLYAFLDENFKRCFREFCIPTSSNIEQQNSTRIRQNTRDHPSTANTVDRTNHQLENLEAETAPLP

Compound | Ki [nM]
COc1ccc(CN(C(=O)[C@@H](N)Cc2c(C)cc(C(N)=O)cc2C)[C@@H](C)c2nc(-c3ccccc3C#N)c[nH]2)cc1OC [Cpd 27] | 30
Cc1cc(C(=O)O)cc(C)c1C[C@H](N)C(=O)N(Cc1ccc(C(=O)O)cc1)[C@@H](C)c1nc(-c2ccccc2)c[nH]1 [Cpd 49] | 48
Cc1cc(C(N)=O)cc(C)c1C[C@H](N)C(=O)N(Cc1ccccc1C#N)[C@@H](C)c1nc(-c2ccccc2)c[nH]1 [Cpd 2] | 2.9
Cc1cc(O)cc(C)c1C[C@H](N)C(=O)N(Cc1nc(-c2ccc(CO)cc2)c(C)[nH]1)C(C)C [Cpd 39] | 0.9
Cc1cc(O)cc(C)c1C[C@H](N)C(=O)N(Cc1nc(-c2ccccc2)c[nH]1)C(c1ccccc1)c1ccccc1 [Cpd 40] | 152
COc1ccc(CN(C(=O)[C@@H](N)Cc2c(C)cc(C(N)=O)cc2C)[C@@H](C)c2nc(-c3cccc(Br)c3)c[nH]2)cc1OC [Cpd 19] | 18.2
Cc1cc(O)cc(C)c1C[C@H](N)C(=O)N(Cc1nc(-c2cc(N)cc(C(=O)O)c2)c(C)[nH]1)C(C)C [Cpd 47] | 22
Cc1cc(O)cc(C)c1C[C@H](N)C(=O)N(Cc1nc(-c2ccc(CCC(=O)O)cc2)c(C)[nH]1)C(C)C [Cpd 46] | 35
COc1ccc(CN(C(=O)[C@@H](N)Cc2c(C)cc(O)cc2C)[C@@H](COCc2ccccc2)c2nc(-c3ccccc3)c[nH]2)cc1OC [Cpd 21] | 37.6
Cc1cc(C(N)=O)cc(C)c1C[C@H](N)C(=O)N(Cc1ccccc1)[C@H](C)c1nc(-c2ccccc2)c[nH]1 [Cpd 113] | 16
CC(C)[C@@H](c1nc(-c2ccccc2)c[nH]1)N(C(=O)[C@@H](N)Cc1cccc(C(N)=O)c1)C(C)C [Cpd 137] | 445
Cc1cc(O)cc(C)c1C[C@H](N)C(=O)N(CC(=O)O)Cc1nc(-c2ccccc2)c[nH]1 [Cpd 129] | 25.3
COc1ccc(CN(C(=O)[C@@H](N)Cc2c(C)cc(C(N)=O)cc2C)[C@@H](C)c2nc(-c3cccc(C(N)=O)c3)c[nH]2)cc1OC [Cpd 23] | 34.3
Cc1cc(O)cc(C)c1C[C@H](N)C(=O)N(Cc1nc(-c2ccc(OC(F)(F)F)cc2)c(C)[nH]1)C(C)C [Cpd 44] | 8.7
Cc1cc(O)cc(C)c1C[C@H](N)C(=O)N(Cc1nc(-c2cccc(NS(C)(=O)=O)c2)c(C)[nH]1)C(C)C [Cpd 45] | 1.2
Cc1[nH]c(CN(C(=O)[C@@H](N)Cc2ccc(O)cc2)C(C)C)nc1-c1cncnc1 [Cpd 132] | 166
COc1ccc(CN(C(=O)[C@@H](N)Cc2c(C)cc(O)cc2C)[C@H](COCc2ccccc2)c2nc(-c3ccccc3)c[nH]2)cc1OC [Cpd 22] | ~200
COc1cc(Br)c(CN(C(=O)[C@@H](N)Cc2c(C)cc(C(N)=O)cc2C)[C@@H](C)c2nc(-c3ccccc3)c[nH]2)cc1OC [Cpd 229] | 12
Cc1cc(C(N)=O)cc(C)c1C[C@H](N)C(=O)N(Cc1ccc(C(=O)O)cc1)[C@@H](C)c1nc(-c2cccc3ccccc23)c[nH]1 [Cpd 13] | 4.8
Cc1cc(O)cc(C)c1C[C@H](N)C(=O)N(Cc1ccc(O)c(O)c1)[C@@H](C)c1nc(-c2ccccc2)c[nH]1 [Cpd 15] | 285
COC(=O)c1cccc(CN(C(=O)[C@@H](N)Cc2c(C)cc(C(N)=O)cc2C)[C@@H](C)c2nc(-c3cccc4ccccc34)c[nH]2)c1 [Cpd 10] | 15.5

Compound | Ki [nM]
CN[C@@H](Cc1ccc(OCc2ccccc2)cc1)C(=O)N(Cc1ccc(OC)c(C(=O)O)c1)[C@@H](C)c1nc(-c2ccccc2)c[nH]1 [Cpd 274] | > 1000
COC(=O)c1cc(CN(C(=O)[C@@H](N)Cc2ccccc2)[C@@H](C)c2nc(-c3ccccc3)c[nH]2)ccc1OC [Cpd 266] | 69
COc1ccc(CN(C(=O)[C@@H](N)Cc2c(C)cc(O)cc2C)[C@@H](C)c2nc(-c3ccccc3)c[nH]2)c(OC)c1 [Cpd 34] | 19
COc1ccc(CN(Cc2nc(-c3ccccc3)c[nH]2)C(=O)[C@@H](N)Cc2c(C)cc(O)cc2C)cc1OC [Cpd 35] | 2.8
Cc1cc(O)cc(C)c1C[C@H](N)C(=O)N(Cc1nc(-c2cccc(OC(F)(F)F)c2)c(C)[nH]1)C(C)C [Cpd 43] | 6.9
COC(=O)c1cc(CN(Cc2nc(-c3ccccc3)c[nH]2)C(=O)[C@@H](N)Cc2c(C)cc(C(N)=O)cc2C)ccc1OC [Cpd 7] | 6.8
COc1ccc(CN(C(=O)[C@@H](N)Cc2c(C)cc(C(N)=O)cc2C)[C@@H](C)c2nc(-c3ccccc3C(N)=O)c[nH]2)cc1OC [Cpd 28] | 44
Cc1cc(O)cc(C)c1C[C@H](N)C(=O)N(CC1CCNCC1)[C@@H](C)c1nc(-c2ccccc2)c[nH]1 [Cpd 16] | 16
COc1cccc(CN(C(=O)[C@@H](N)Cc2c(C)cc(O)cc2C)[C@@H](C)c2nc(-c3ccccc3)c[nH]2)c1 [Cpd 33] | 6.9
COc1ccc(CN(C(=O)[C@@H](N)Cc2c(C)cc(C(N)=O)cc2C)[C@@H](C)c2nc(-c3cccc(C#N)c3)c[nH]2)cc1OC [Cpd 24] | 9.3
Cc1cc(C(N)=O)cc(C)c1C[C@H](N)C(=O)N(Cc1ccccc1)[C@@H](C)c1nc(-c2ccc(C(F)(F)F)cc2)c[nH]1 [Cpd 42] | 5.8
COC(=O)c1cc(CN(C(=O)[C@@H](N)Cc2c(C)cc(O)cc2C)[C@@H](C)c2nc(-c3ccccc3)c[nH]2)ccc1OC [Cpd 268] | 5.79
Cc1cc(O)cc(C)c1C[C@H](N)C(=O)N(Cc1nc(-c2ccc(C(=O)O)c(F)c2)c(C)[nH]1)C(C)C [Cpd 37] | 183
Cc1cc(O)cc(C)c1C[C@H](N)C(=O)N(Cc1nc(-c2ccc(C#N)cc2)c(C)[nH]1)C(C)C [Cpd 41] | 1.6
Cc1cc(O)cc(C)c1C[C@H](N)C(=O)N(Cc1ccc(OCc2ccccc2)c(OCc2ccccc2)c1)[C@@H](C)c1nc(-c2ccccc2)c[nH]1 [Cpd 30] | 34
C[C@@H](c1nc(Cc2ccccc2)c[nH]1)N(C)C(=O)[C@@H](N)Cc1ccc(O)cc1 [Cpd 204] | 7.7
Cc1cc(C(N)=O)cc(C)c1C[C@H](N)C(=O)N(C1CCCCC1)[C@H](C)c1nc(-c2ccccc2)c[nH]1 [Cpd 128] | 58
COc1ccc(CN(C(=O)[C@@H](N)Cc2c(C)cc(O)cc2C)[C@@H](C)c2nc(-c3ccccc3)c[nH]2)cc1 [Cpd 32] | 6.8
Cc1cc(C(N)=O)cc(C)c1C[C@H](N)C(=O)N(Cc1ccccc1Br)[C@@H](C)c1nc(-c2ccccc2)c[nH]1 [Cpd 3] | 13
COc1ccc(CN(C(=O)[C@@H](N)Cc2c(C)cc(C(N)=O)cc2C)[C@@H](C)c2nc(-c3ccccc3Br)c[nH]2)cc1OC [Cpd 26] | 17
Cc1cc(O)cc(C)c1C[C@H](N)C(=O)N(Cc1nc(C=Cc2ccccc2)c(C)[nH]1)C(C)C [Cpd 38] | 19
